Test results as given in US9540396B2, “6-arylamino pyridone carboxamide as MEK inhibitors” (Centaurus Biopharma Co., Ltd., priority 2010, dated 2017).

Tests used:
[1] = test system: phosphorylated ERK in Human A375 melanoma cancer cells; assay: AlphaScreen assay for phosphorylated ERK in A375 cells; conditions: A-375, 1 h, compound treatment 60 minutes at 37 degree, phospho-ERK, read-out: IC50 (nM) Cell based
Protocol: The SureFire Phospho-ERK1/2 Assay kit and the AlphaScreen General IgG (Protein A) Detection kit were both purchased from PerkinElmer.
Generation of Cell Based IC50 Data • Effects of compounds in the cell were determined by the AlphaScreen assay for phosphorylated ERK. Human A375 melanoma cancer cells were plated in a 96 wells plate at 80,000 cells per well and grown in a 37 degree humidified CO2 incubator. The following day, cells were treated with a range of compound concentrations for 60 minutes at 37 degree. The cells were then lysed and 4 ul of each lysate were transferred into the 384 well white reaction plate. A cocktail of AlphaScreen beads and buffer was freshly prepared and this mixture was dispensed into each well in a room with low light. A top seal was applied and the plate was incubated at 25 degree avoiding light for two hours. The top seal was removed when the plate was counted by the EnVision multi labeled plate reader (PerkinElmer) with an optimized AlphaScreen program. […] Biological Data for Select Compounds

MEK1 kinase = MEK1 kinase (Homo sapiens (Human), UniProt Q02750); assay: MEK1 kinase enzymatic activity assay (Kinase Glo plus luminescence); format: biochemical; conditions: 60 minutes at 22 degree
Protocol: The Kinase Glo plus assay kit was purchased from Promega. The substrate, APT, DTT, and dimethylsulfoxide were purchased from Sigma-Aldrich.
The MAP2K1 (MEK1) kinase, Europium labeled Antibody, Tracer 236 and binding buffer A were purchased from Invitrogen.
Determination of Enzymatic Activity:
Compounds were diluted from DMSO stocks into 1× buffer (20 mM MOPS, PH 7.4, 5 mM MgCl2, 0.5 mM MnCl2, 100 uM Sodium Orthovanadate, 0.01% Triton X-100, 1 mM DTT). A typical reaction assay contained 0.01 nanomoles MEK1 kinase, 0.01 nanomoles ATP, 10 nanograms substrate. The screening assay essentially comprised four additions. 2 ul of diluted compounds were dispensed to 384 well white assay plates. 6 ul of kinase-substrate cocktail was then added to each well. 2 ul 5×ATP was subsequently added to each well to start the reaction. A top seal was applied and the plate was incubated at 22 degree avoiding light for 60 minutes. Finally, 10 ul of the Kinase Glo plus reagent was added to each well to stop the reaction. Incubated at room temperature and avoid light for ten minutes. The top seal was removed and the plate was counted by the EnVision 2104 multi labeled plate reader (PerkinElmer) with a standard luminescent program.

Chain of MEK1 kinase (Q02750 whole entry): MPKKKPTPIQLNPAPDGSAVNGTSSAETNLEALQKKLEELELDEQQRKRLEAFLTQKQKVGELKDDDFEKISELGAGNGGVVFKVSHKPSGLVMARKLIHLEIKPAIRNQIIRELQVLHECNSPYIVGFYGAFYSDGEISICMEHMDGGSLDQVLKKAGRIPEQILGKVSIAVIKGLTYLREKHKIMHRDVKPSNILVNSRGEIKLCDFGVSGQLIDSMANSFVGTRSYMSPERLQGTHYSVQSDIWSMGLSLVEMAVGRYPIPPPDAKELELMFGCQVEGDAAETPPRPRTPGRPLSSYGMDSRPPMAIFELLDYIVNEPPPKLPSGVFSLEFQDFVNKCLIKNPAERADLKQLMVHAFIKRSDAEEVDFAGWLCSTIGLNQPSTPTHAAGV

SMILES: Cn1c(Nc2ccc(I)cc2F)c(C(=O)NOCCO)c2nc(N)sc2c1=O
- IC50 [1]: < 100 nM
- IC50 (MEK1 kinase): < 500 nM

SMILES: Cc1nc2c(=O)n(C)c(Nc3ccc(I)cc3F)c(C(=O)NOCCO)c2o1
- IC50 [1]: < 100 nM
- IC50 (MEK1 kinase): < 1000 nM

SMILES: C[C@@H](CO)ONC(=O)c1c(Nc2ccc(I)cc2F)n(C)c(=O)c2ccoc12
- IC50 [1]: < 100 nM
- IC50 (MEK1 kinase): < 100 nM

SMILES: Cn1c(Nc2ccc(I)cc2F)c(C(=O)NOCCO)c2ncsc2c1=O
- IC50 [1]: < 100 nM
- IC50 (MEK1 kinase): < 1000 nM

SMILES: CONC(=O)c1c(Nc2ccc(I)cc2F)n(C)c(=O)c2ccoc12
- IC50 [1]: < 100 nM
- IC50 (MEK1 kinase): < 500 nM

SMILES: CCONC(=O)c1c(Nc2ccc(I)cc2F)n(C)c(=O)c2ccoc12
- IC50 [1]: < 100 nM
- IC50 (MEK1 kinase): < 500 nM

SMILES: Cn1c(Nc2ccc(I)cc2F)c(C(=O)NCCCO)c2occc2c1=O
- IC50 [1]: < 100 nM
- IC50 (MEK1 kinase): < 10000 nM

SMILES: Cn1c(Nc2ccc(I)cc2F)c(C(=O)NOCCO)c2occc2c1=O
- IC50 [1]: < 100 nM
- IC50 (MEK1 kinase): < 100 nM

SMILES: Cn1c(Nc2ccc(I)cc2F)c(C(=O)NOC(C)(C)CO)c2occc2c1=O
- IC50 [1]: < 100 nM
- IC50 (MEK1 kinase): < 100 nM

SMILES: Cc1cc2c(=O)n(C)c(Nc3ccc(I)cc3F)c(C(=O)NOC[C@H](O)CO)c2o1
- IC50 [1]: < 100 nM
- IC50 (MEK1 kinase): < 500 nM

SMILES: Cn1c(Nc2ccc(I)cc2Cl)c(C(=O)NCCCO)c2occc2c1=O
- IC50 [1]: < 100 nM
- IC50 (MEK1 kinase): < 10000 nM

SMILES: CC[C@H](O)CONC(=O)c1c(Nc2ccc(I)cc2F)n(C)c(=O)c2ccoc12
- IC50 [1]: < 100 nM
- IC50 (MEK1 kinase): < 100 nM

SMILES: Cc1nc2c(C(=O)NOCCO)c(Nc3ccc(I)cc3F)n(C)c(=O)c2s1
- IC50 [1]: < 100 nM
- IC50 (MEK1 kinase): < 500 nM

SMILES: Cn1c(Nc2ccc(Cl)cc2Cl)c(C(=O)NOCCO)c2occc2c1=O
- IC50 [1]: < 1000 nM
- IC50 (MEK1 kinase): < 10000 nM

SMILES: Cn1c(Nc2ccc(I)cc2Cl)c(C(=O)NOCCO)c2occc2c1=O
- IC50 [1]: < 100 nM
- IC50 (MEK1 kinase): < 100 nM

SMILES: CNc1nc2c(C(=O)NOCCO)c(Nc3ccc(I)cc3F)n(C)c(=O)c2s1
- IC50 [1]: < 100 nM
- IC50 (MEK1 kinase): < 500 nM

SMILES: Cn1c(Nc2ccc(I)cc2F)c(C(=O)NCC(O)CO)c2occc2c1=O (stereo not shown)
- IC50 [1]: < 100 nM
- IC50 (MEK1 kinase): < 1000 nM

SMILES: CN(C)Cc1cc2c(=O)n(C)c(Nc3ccc(I)cc3F)c(C(=O)NOCCO)c2o1
- IC50 [1]: < 100 nM
- IC50 (MEK1 kinase): < 500 nM

SMILES: Cn1c(Nc2ccc(I)cc2F)c(C(=O)NOCCO)c2sccc2c1=O
- IC50 [1]: < 100 nM
- IC50 (MEK1 kinase): < 500 nM

SMILES: CSc1ccc(Nc2c(C(=O)NOCCO)c3occc3c(=O)n2C)c(Cl)c1
- IC50 [1]: < 100 nM
- IC50 (MEK1 kinase): < 1000 nM

SMILES: Cn1c(Nc2ccc(I)cc2F)c(C(=O)NOCCO)c2scnc2c1=O
- IC50 [1]: < 10000 nM
- IC50 (MEK1 kinase): < 10000 nM

SMILES: Cc1coc2c(C(=O)NOCCO)c(Nc3ccc(I)cc3Cl)n(C)c(=O)c12
- IC50 [1]: < 100 nM
- IC50 (MEK1 kinase): < 500 nM

SMILES: CSc1ccc(Nc2c(C(=O)NOCCO)c3occc3c(=O)n2C)c(F)c1
- IC50 [1]: < 100 nM
- IC50 (MEK1 kinase): < 500 nM

SMILES: Cn1c(Nc2ccc(I)cc2F)c(C(=O)NOCCO)c2oc(CN3CCOCC3)cc2c1=O
- IC50 [1]: < 100 nM
- IC50 (MEK1 kinase): < 500 nM

SMILES: Cn1c(Nc2ccc(I)cc2F)c(C(=O)N2CC(O)(C3CCCCN3)C2)c2occc2c1=O (stereo not shown)
- IC50 [1]: < 100 nM
- IC50 (MEK1 kinase): < 1000 nM

SMILES: Cn1c(Nc2ccc(I)cc2F)c(C(=O)NC(=O)CO)c2occc2c1=O
- IC50 [1]: < 500 nM
- IC50 (MEK1 kinase): < 10000 nM

SMILES: Cn1c(Nc2ccc(Br)cc2Cl)c(C(=O)NOCCO)c2occc2c1=O
- IC50 [1]: < 100 nM
- IC50 (MEK1 kinase): < 1000 nM

SMILES: Cn1c(Nc2ccc(I)cc2F)c(C(=O)NOCC2CC2)c2occc2c1=O
- IC50 [1]: < 100 nM
- IC50 (MEK1 kinase): < 100 nM

SMILES: Cn1c(Nc2ccc(Br)cc2F)c(C(=O)NOCCO)c2occc2c1=O
- IC50 [1]: < 100 nM
- IC50 (MEK1 kinase): < 10000 nM

SMILES: Cc1noc2c(C(=O)NOCCO)c(Nc3ccc(I)cc3F)n(C)c(=O)c12
- IC50 [1]: < 100 nM
- IC50 (MEK1 kinase): < 10000 nM

SMILES: CSc1nc2c(C(=O)NOCCO)c(Nc3ccc(I)cc3Cl)n(C)c(=O)c2s1
- IC50 [1]: < 100 nM
- IC50 (MEK1 kinase): < 100 nM

SMILES: Cn1c(Nc2ccc(I)cc2F)c(C(N)=O)c2occc2c1=O
- IC50 [1]: < 100 nM
- IC50 (MEK1 kinase): < 1000 nM

SMILES: Cc1cc2c(=O)n(C)c(Nc3ccc(I)cc3F)c(C(=O)NOCCO)c2o1
- IC50 [1]: < 100 nM
- IC50 (MEK1 kinase): < 500 nM

SMILES: Cn1c(Nc2ccc(I)cc2F)c(C(=O)NOC[C@H](O)CO)c2occc2c1=O
- IC50 [1]: < 100 nM
- IC50 (MEK1 kinase): < 100 nM

SMILES: C[C@H](O)CONC(=O)c1c(Nc2ccc(I)cc2F)n(C)c(=O)c2ccoc12
- IC50 [1]: < 100 nM
- IC50 (MEK1 kinase): < 100 nM

SMILES: COCCONC(=O)c1c(Nc2ccc(I)cc2F)n(C)c(=O)c2ccoc12
- IC50 [1]: < 100 nM
- IC50 (MEK1 kinase): < 500 nM

SMILES: CSc1nc2c(C(=O)NOCCO)c(Nc3ccc(I)cc3F)n(C)c(=O)c2s1
- IC50 [1]: < 100 nM
- IC50 (MEK1 kinase): < 500 nM

SMILES: Cc1coc2c(C(=O)NOCCO)c(Nc3ccc(I)cc3F)n(C)c(=O)c12
- IC50 [1]: < 100 nM
- IC50 (MEK1 kinase): < 500 nM
